Values quoted from earlier work, collected in US11083779B2, “Method for treatment of encephalopathy” (priority 2018, dated 2021).

System: toxic encephalopathy
Conditions: PIRACETAM i.v. 10-15 minutes before transcranial electrical stimulation, two steps (77 Hz, 10 Hz)

For `NC(=O)CN1CCCC1=O` [PIRACETAM®, PIRACETAM], the “patient symptoms after treatment” value is listed as “decrease of headaches, giddiness and the improvement of sleep”.
